Where two headings read alike, the source gives them in different places.
Assays:
Format in all cases: cell-based
K-562 = test: Cell proliferation inhibition (CellTiter-Glo), K-562 cells; details: Homo sapiens, K-562 (BCR-ABL)
Description: (§1) The present example evaluates the ability of compounds described herein, inhibitors of Menin/MLL interaction, to inhibit cell proliferation. The proliferation inhibitory effect was investigated in human MLL-leukemia cells selected on the bases of MLL fusion proteins and listed in the table below.
(§2) ATP is present in all metabolically active cells and is considered as a marker for cell viability and proliferation. The metabolic cell activity was determined using the CellTiter-Glo kit from Promega, an ATP monitoring system based on the production of luminescence by the reaction of ATP with added UltraGlo® recombinant luciferase (Kawano et al., 2016, PLOS One, 8:11(7):e0158888), according to the supplier's experimental recommendations. The assay is based on a 96 well plate format. All experiments were carried out in duplicate in one test occasion.
(§3) Test items were dissolved at 20 mM in DMSO with purity ≥99.9% (Sigma catalog no. D8418) and stored at −20° C. Cells were maintained in RPMI-1640 medium (Invitrogen catalog no. 618700) supplemented with 10% of Heat Inactivated FBS (Invitrogen catalog no. 10500) and 1% Pen-Strep (Invitrogen catalog no. 15140) and cultured at 37° C. in a humidified incubator with 5% CO2. Cell lines were grown in suspension and the cell density was maintained in a range of 5×10^4-1×10^6 viable cells/ml where possible. Cells were pelleted at 130 g×5 min.
(§4) Serial dilutions of compounds 1 to 3 in DMSO 100% were prepared starting from a 2.5 mM solutions (prepared by diluting 1:8 the 20 mM stock solution) to generate a 7 point concentration response curve (CRC). Seven concentrations of test compounds (e.g., 5.00×10^−6-1.67×10^−6-5.56×10^−7-1.85×10^−7-6.17×10^−8-2.06×10^−8-6.86×10^−9 M) were assessed in duplicate in an individual test occasion in parallel in the selected cell lines. KO-539 was used as a reference compound and tested in duplicate at seven similar concentrations. 100% of proliferation was represented by the untreated cells (0.2% DMSO).
(§5) Cell proliferation inhibition was monitored at both the following end points: Day 4 (T4) and Day 7 (T7). For the appropriate cell density during the exponential cell growth and re-supply with fresh compound solution at T4, cells were diluted (1:4) with fresh medium containing the compound concentration (1×).
(§6) For each plate to test, one 0.4 μL copy plate and four 0.3 μL copy plates were stamped into 96-well plates not treated for cell adhesion (Sarstedt—cat. no. 82.1581.001) by acoustic liquid handling (Echo) at a concentration which was 500 fold the final assay concentration. Stamped plates were stored at −20° C.
(§7) On Day 0, the day of the experiment cell line suspensions were counted by Cell Viability Analyser, Vi-CELL (Beckman Coulter AY15292), and diluted with fresh medium to obtain the following cell densities: K-562 500 c/ml, MOLM-13 1,000 c/ml, MV4-11 10,000 c/ml, OCI-AML-3 500 c/ml, and U-937 500-1,000 c/ml. 200 μL/well and 150 μL/well of cell suspension were added into the 0.4 μL/well and 0.3 μL/well compound plates, respectively. Cell plate containing 200 μL/well suspension were incubated at 37° C. in a humidified incubator with 5% CO2. From each well of the 150 μL/well cell assay plate, 100 μL were harvested and transferred into a 96-well Optiplate (Perkin Elmer, cat. no. 6005290). Cell viability was measured as described below.
(§8) On Day 4, 150p/well of fresh medium was added into a new 0.3 μL/well copy compound plates. From each well of the 200 μL/well cell assay plate, 100 μL was sampled for the cell viability measurement as described below. 50p was harvested and added to the 150p/well compound plate prepared as described in the first point to dilute 1:4 the cell suspension. The cell assay plate diluted and containing 200 μL/well suspension was incubated at 37° C. in a humidified incubator with 5% CO2.
(§9) On Day 4, 150p/well of fresh medium was added into a new 0.3 μL/well copy compound plates. […]

MV4-11 = test: Cell proliferation inhibition (CellTiter-Glo), MV4-11 cells; details: Homo sapiens, MV4-11 (MLL-AF4)
Description: as §1, §2, §3, §4, §5, §6, §7, §8, §9

MOLM-13 = test: Cell proliferation inhibition (CellTiter-Glo), MOLM-13 cells; details: Homo sapiens, MOLM-13 (MLL-AF9)
Description: as §1, §2, §3, §4, §5, §6, §7, §8, §9

[1] = K562, 96 h, Day 4, read-out: K-562 IC50 μM (Day 4)
[2] = 96 h, Day 4, read-out: MV-4:11 IC50 μM (Day 4)*
[3] = 96 h, Day 4, read-out: MOLM-13 Day IC50 μM (Day 4)*
[4] = K562, 168 h, Day 7, read-out: K-562 IC50 μM (Day 7)*
[5] = 168 h, Day 7, read-out: MV-4:11 IC50 μM (Day 7)*
[6] = 168 h, Day 7, read-out: MOLM-13 Day IC50 μM (Day 7)*

IC50 (K-562; [1]) [µM] | IC50 (MV4-11; [2]) [µM] | IC50 (MOLM-13; [3]) [µM] | IC50 (K-562; [4]) [µM] | IC50 (MV4-11; [5]) [µM] | IC50 (MOLM-13; [6]) [µM] | Compound
> 10 | 0.796 | 0.475 |  |  |  | C=CC(=O)N[C@@H]1CCCN(Cc2ccnc(C(=O)Nc3ccc(-c4cc5c(N6CCOCC6)ncnc5[nH]4)cc3F)c2)C1 [Compound B0700-549]
6.7 | 0.634 | 0.506 |  |  |  | CCN(C/C=C/C(=O)N[C@@H]1CCCN(Cc2ccnc(C(=O)Nc3ccc(-c4cc5c(N6CCOCC6)ncnc5[nH]4)cc3)c2)C1)C1CC1 [Compound B0700-525]
> 10 | > 10 | > 10 |  |  |  | C=CC(=O)N[C@H]1CCN(c2cccc(CS(=O)(=O)NC3CCN(c4nc5c(N6CCOCC6)ncnc5s4)CC3)c2)C1 [Compound B0700-537]
> 10 | 0.148 | 0.329 |  |  |  | C=CC(=O)N[C@H]1CCCN(c2cccc(CS(=O)(=O)Nc3ccc(-c4cc5c(N6CCOCC6)ncnc5[nH]4)cc3)c2)C1 [Compound B0700-540]
> 10 | 1.6 | 1.23 |  |  |  | Cc1cc(C)n2c1C=C1C=CC(CCC(=O)NCCCCN(C)C/C=C/C(=O)Nc3ccc(CC(=O)Nc4ccc(-c5cc6c(N7CCOCC7)ncnc6[nH]5)cc4)cc3)=[N+]1[B-]2(F)F [Compound B0700-504]
> 10 | 1.75 | 3.59 |  |  |  | C=CC(=O)N[C@@H]1CCCN(c2cccc([C@@H](C)S(=O)(=O)Nc3ccc(-c4cc5c(N6CCOCC6)ncnc5[nH]4)cc3)c2)C1 [Compound B0700-546]
> 10 | 0.436 | 0.374 |  |  |  | C=CC(=O)N[C@@H]1CCCN(c2cccc(CS(=O)(=O)Nc3ccc(-c4cc5c(N6CCOCC6)ncnc5[nH]4)cc3)c2)C1 [Compound B0700-539]
> 10 | 0.764 | 0.683 |  |  |  | CN(C/C=C/C(=O)N[C@@H]1CCCN(Cc2ccnc(C(=O)Nc3ccc(-c4cc5c(N6CCOCC6)ncnc5[nH]4)cc3)c2)C1)C1CC1 [Compound B0700-524, (R,E)-4-((3-(4-(cyclopropyl(methyl)amino)but-2-enamido)piperidin-1-yl)methyl)-N-(4-(4-morpholino-7H-pyrrolo[2,3-d]pyrimidin-6-yl)phenyl)picolinamide]
> 10 | 0.418 | 1.39 |  |  |  | C=CC(=O)N[C@@H]1CCCN(c2cccc([C@H](C)S(=O)(=O)Nc3ccc(-c4cc5c(N6CCOCC6)ncnc5[nH]4)cc3)c2)C1 [Compound B0700-547]
> 10 | 0.318 | 0.492 | 9.87 | 0.37 | 1.07 | C=CC(=O)N[C@@H]1CCCN(Cc2ccnc(C(=O)Nc3ccc(-c4cc5c(N6CCC(C)(O)CC6)ncnc5[nH]4)cc3)c2)C1 [Compound B0700-569]
9.07 | 0.073 | 0.158 |  |  |  | C=CC(=O)N[C@H]1CCN(c2cccc(C(C)S(=O)(=O)Nc3ccc(-c4cc5c(N6CCOCC6)ncnc5[nH]4)cc3)c2)C1 (stereo partly drawn) [Compound B0700-543]
3.3 | 0.322 | 0.48 |  |  |  | C=CS(=O)(=O)N[C@@H]1CCCN(c2cccc(CS(=O)(=O)Nc3ccc(-c4cc5c(N6CCOCC6)ncnc5[nH]4)cc3)c2)C1 [Compound B0700-542, (R)—N-(1-(3-((N-(4-(4-morpholino-7H-pyrrolo[2,3-d]pyrimidin-6-yl)phenyl)sulfamoyl)methyl)phenyl)piperidin-3-yl)ethenesulfonamide]
2.89 | 8.92 | > 10 |  |  |  | C=CC(=O)N[C@@H]1CCCN(Cc2ccnc(C(=O)NC3CCN(c4nc5c(N6CCOCC6)ncnc5s4)CC3)c2)C1 [Compound B0700-310, (R)-4-((3-acrylamidopiperidin-1-yl)methyl)-N-(1-(7-morpholinothiazolo[5,4-d]pyrimidin-2-yl)piperidin-4-yl)picolinamide]
> 10 | 1.18 | 3.67 |  |  |  | C=CC(=O)NC1CN(c2ccnc(CC(=O)Nc3ccc(-c4cc5c(N6CCOCC6)ncnc5[nH]4)cc3)n2)C1 [Compound B0700-323, N-(1-(2-(2-((4-(4-morpholino-7H-pyrrolo[2,3-d]pyrimidin-6-yl)phenyl)amino)-2-oxoethyl)pyrimidin-4-yl)azetidin-3-yl)acrylamide]
2.96 | 0.398 | 0.202 | 3.47 | 0.43 | 0.349 | C=CC(=O)N[C@@H]1CCC[C@H](Nc2ccnc(C(=O)Nc3ccc(-c4cc5c(N6CCOCC6)ncnc5[nH]4)cc3)c2)C1 [Compound B0700-607, 4-(((1S,3R)-3-acrylamidocyclohexyl)amino)-N-(4-(4-morpholino-7H-pyrrolo[2,3-d]pyrimidin-6-yl)phenyl)picolinamide]
> 10 | > 10 | > 10 |  |  |  | C=CC(=O)N[C@@H]1CCCN(Cc2cccc(S(=O)(=O)Nc3ccc(-c4nc5c(N6CCOCC6)ncnc5s4)nc3)c2)C1 [Compound B0700-534, (R)—N-(1-(3-(N-(6-(7-morpholinothiazolo[5,4-d]pyrimidin-2-yl)pyridin-3-yl)sulfamoyl)benzyl)piperidin-3-yl)acrylamide]
0.616 | 0.314 | 0.28 |  |  |  | C=CC(=O)N[C@@H]1CCCN(Cc2ccc(F)c(C(=O)Nc3ccc(-c4cc5c(N6CCOCC6)ncnc5[nH]4)cc3)c2)C1 [Compound B0700-530]
5.18 | > 10 | > 10 |  |  |  | C=CC(=O)N1CC(N2CCCC(CNS(=O)(=O)N3CCN(c4nc5c(N6CCOCC6)ncnc5[nH]4)CC3)C2)C1 (stereo not drawn) [Compound B0700-512]
7.05 | > 10 | 0.184 |  |  |  | C=CC(=O)N[C@@H]1CCN(c2cccc(CS(=O)(=O)Nc3ccc(-c4cc5c(N6CCOCC6)ncnc5[nH]4)cc3)c2)C1 [Compound B0700-535, (R)—N-(1-(3-((N-(4-(4-morpholino-7H-pyrrolo[2,3-d]pyrimidin-6-yl)phenyl)sulfamoyl)methyl)phenyl)pyrrolidin-3-yl)acrylamide]
> 10 | 0.629 | 0.963 | > 10 | 0.38 | 0.834 | C=CC(=O)N1CCCC(N2CCC(S(=O)(=O)Nc3ccc(-c4cc5c(N6CCOCC6)ncnc5[nH]4)cc3)C2)C1 (stereo not drawn) [Compound B0700-611, 1-(1-acryloylpiperidin-3-yl)-N-(4-(4-morpholino-7H-pyrrolo[2,3-d]pyrimidin-6-yl)phenyl)pyrrolidine-3-sulfonamide]
0.074 | 0.051 | 0.069 |  |  |  | C=CS(=O)(=O)N[C@@H]1CCCN(Cc2ccnc(C(=O)Nc3ccc(-c4cc5c(N6CCOCC6)ncnc5[nH]4)cc3)c2)C1 [Compound B0700-333, (R)—N-(4-(4-morpholino-7H-pyrrolo[2,3-d]pyrimidin-6-yl)phenyl)-4-((3-(vinylsulfonamido)piperidin-1-yl)methyl)picolinamide]

Source: patent publication US20240124467A1, “FUSED PYRIMIDINE COMPOUNDS AS INHIBITORS OF MENIN-MLL INTERACTION” (Biomea Fusion, Inc., priority 2020, published 2024)
